Test results taken from US20130261108A1, “COMPOSITIONS AND METHODS FOR MODULATING FARNESOID X RECEPTORS” (IRM LLC, priority 2010, published 2013).

Molecular target: T1, human Farnesoid X Receptor (FXR) ligand binding domain (Homo sapiens, UniProt Q96RI1)
T1 construct: purchased Invitrogen
T1 sequence (Q96RI1 193-472 isoform Q96RI1-2): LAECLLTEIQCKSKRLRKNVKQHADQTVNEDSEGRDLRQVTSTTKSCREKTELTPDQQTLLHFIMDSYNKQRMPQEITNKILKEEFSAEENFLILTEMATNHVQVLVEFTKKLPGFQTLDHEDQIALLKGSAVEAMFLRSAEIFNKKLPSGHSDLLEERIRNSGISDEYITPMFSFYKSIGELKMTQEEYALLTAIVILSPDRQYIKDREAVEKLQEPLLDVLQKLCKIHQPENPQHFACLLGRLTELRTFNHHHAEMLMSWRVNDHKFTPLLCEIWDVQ
Experiment: Human GST-FXR LBD co-activator interaction assay (FXR HTRF assay)
Assay type: biochemical
Conditions: GST-FXR LBD with biotin-labeled SRC-1 peptide, FRET/HTRF, 2.5 hours at room temperature; response relative to GW4064; read-out: FXR coactivator interaction assay (HTRF) (EC50)
Text: Human GST-FXR LBD Co-Activator Interaction Assay.
The FXR HTRF assay is a biochemical assay measuring the interaction between FXR and a coactivator protein (SRC1). The ligand-induced interaction with a coactivator protein is a critical step in transcriptional activation by FXR. Thus, this is an assay designed to measure FXR agonist activity of compounds.
The ligand-dependent interaction between GST-FXR LBD and a peptide derived from Steroid Receptor Coactivator-1 (SRC-1) was monitored by Fluorescence Resonance Energy Transfer (FRET). […] Test compounds (in DMSO solution) and detection reagents (anti-GST-Cryptate labeled antibody and Streptavidin-XL665 conjugate; CisBio) were added in assay buffer containing 50 mM KF. Plates are incubated at room temperature in the dark for 2.5 hours before reading on an Envision (PerkinElmer) at 665 nm and 590 nm.
A negative control (without Streptavidin-XL665) was run with each assay and represented the background fluorescence. A reference FXR agonist, GW4064, was included in each experiment as positive control. The efficacy of each test compound was compared to that of GW4064. At each concentration, the relative activity of the test compound was expressed as Response %=(Rsample−RDMSO)/(Rpositive−RDMSO), where Rsample is the HTRF response (expressed in Delta F %) for the test compound, Rpositive is the maximal response for GW4064 at saturating concentrations, and RDMSO is the response for DMSO control. The EC50 values were calculated using GraphPad Prism (GraphPad Software) using non-linear regression curve fit (log(agonist) vs. response−variable slope (four parameters)).

| EC50 | Compound |
| --- | --- |
| 246 nM | O=C(O)c1ccc2nc(N3CCC(OCc4c(C5CCCCC5)noc4C4CC4)CC3)sc2c1 [Example 2-15, 2-{4-[(3-cyclohexyl-5-cyclopropyl-1,2-oxazol-4-yl)methoxy]piperidin-1-yl}-1,3-benzothiazole-6-carboxylic acid] |
| 263 nM | O=C(O)c1ccc2nc(N3CCC(OCc4c(C5CCCC5)noc4C4CC4)CC3)sc2c1 [Example 2-16, 2-{4-[(3-cyclopentyl-5-cyclopropyl-1,2-oxazol-4-yl)methoxy]piperidin-1-yl}-1,3-benzothiazole-6-carboxylic acid] |
| 423 nM | O=C(O)c1ccc2nc(N3CCC(OCc4c(C5CC6CCC5C6)noc4C4CC4)CC3)sc2c1 (stereo not drawn) [Example 2-17, 2-{4-[(3-{bicyclo[2.2.1]heptan-2-yl}-5-cyclopropyl-1,2-oxazol-4-yl)methoxy]piperidin-1-yl}-1,3-benzothiazole-6-carboxylic acid] |
| 248 nM | CCOC(=O)c1ccc2nc(N3CCCC(OCc4c(-c5ccccc5OC(F)(F)F)noc4C4CC4)CC3)sc2c1 (stereo not drawn) [Example 3-1A, ethyl 2-[4-({5-cyclopropyl-3-[2-(trifluoromethoxy)phenyl]-1,2-oxazol-4-yl}methoxy)azepan-1-yl]-1,3-benzothiazole-6-carboxylate] |
| 7 nM | O=C(O)c1ccc2nc(N3CCCC(OCc4c(-c5ccccc5OC(F)(F)F)noc4C4CC4)CC3)sc2c1 (stereo not drawn) [Example 3-1B, 2-[4-({5-cyclopropyl-3-[2-(trifluoromethoxy)phenyl]-1,2-oxazol-4-yl}methoxy)azepan-1-yl]-1,3-benzothiazole-6-carboxylic acid] |
| 416 nM | CCOC(=O)c1ccc2nc(N3CCCC(OCc4c(-c5ccccc5C(F)(F)F)noc4C4CC4)CC3)sc2c1 (stereo not drawn) [Example 3-2A, ethyl 2-[4-({5-cyclopropyl-3-[2-(trifluoromethyl)phenyl]-1,2-oxazol-4-yl}methoxy)azepan-1-yl]-1,3-benzothiazole-6-carboxylate] |
| 8 nM | O=C(O)c1ccc2nc(N3CCCC(OCc4c(-c5ccccc5C(F)(F)F)noc4C4CC4)CC3)sc2c1 (stereo not drawn) [Example 3-2B, 2-[4-({5-cyclopropyl-3-[2-(trifluoromethyl)phenyl]-1,2-oxazol-4-yl}methoxy)azepan-1-yl]-1,3-benzothiazole-6-carboxylic acid] |
| 960 nM | CCOC(=O)c1ccc2nc(N3CCC(OCc4c(-c5c(Cl)cccc5Cl)noc4C(C)C)CC3)sc2c1 [Example 4A, Ethyl 2-(4-((3-(2,6-dichlorophenyl)-5-isopropylisoxazol-4-yl)methoxy)piperidin-1-yl)benzo[d]thiazole-6-carboxylate] |
| 7 nM | CC(C)c1onc(-c2c(Cl)cccc2Cl)c1COC1CCN(c2nc3ccc(C(=O)O)cc3s2)CC1 [Example 4B, 2-(4-((3-(2,6-Dichlorophenyl)-5-isopropylisoxazol-4-yl)methoxy)piperidin-1-yl)benzo[d]thiazole-6-carboxylic acid] |
| 44 nM | O=C(O)c1ccc2nc(N3CCC(OCc4c(C5CCCCC5C(F)(F)F)noc4C4CC4)CC3)sc2c1 (stereo not drawn) [Example 5, 2-[4-({5-cyclopropyl-3-[2-(trifluoromethyl)cyclohexyl]-1,2-oxazol-4-yl}methoxy)piperidin-1-yl]-1,3-benzothiazole-6-carboxylic acid] |
| 132 nM | N#Cc1ccc2nc(N3CCC(OCc4c(-c5c(Cl)cccc5Cl)noc4C4CC4)CC3)sc2c1 [Example 6-1, 2-(4-((5-cyclopropyl-3-(2,6-dichlorophenyl)isoxazol-4-yl)methoxy)piperidin-1-yl)benzo[d]thiazole-6-carbonitrile] |
| 19 nM | NC(=O)c1ccc2nc(N3CCC(OCc4c(-c5c(Cl)cccc5Cl)noc4C4CC4)CC3)sc2c1 [Example 6-2, 2-(4-((5-cyclopropyl-3-(2,6-dichlorophenyl)isoxazol-4-yl)methoxy)piperidin-1-yl)benzo[d]thiazole-6-carboxamide] |
| 15 nM | Clc1cccc(Cl)c1-c1noc(C2CC2)c1COC1CCN(c2nc3ccc(-c4nn[nH]n4)cc3s2)CC1 [Example 6-3, 4-(((1-(6-(2H-tetrazol-5-yl)benzo[d]thiazol-2-yl)piperidin-4-yl)oxy)methyl)-5-cyclopropyl-3-(2,6-dichlorophenyl)isoxazole] |
| 2200 nM | N#Cc1ccc2nc(N3CCC(OCc4c(-c5ccccc5OC(F)(F)F)noc4C4CC4)CC3)sc2c1 [Example 7-1, 2-[4-({5-cyclopropyl-3-[2-(trifluoromethoxy)phenyl]-1,2-oxazol-4-yl}methoxy)piperidin-1-yl]-1,3-benzothiazole-6-carbonitrile] |
| 164 nM | NC(=O)c1ccc2nc(N3CCC(OCc4c(-c5ccccc5OC(F)(F)F)noc4C4CC4)CC3)sc2c1 [Example 7-2, 2-[4-({5-cyclopropyl-3-[2-(trifluoromethoxy)phenyl]-1,2-oxazol-4-yl}methoxy)piperidin-1-yl]-1,3-benzothiazole-6-carboxamide] |
| 433 nM | FC(F)(F)Oc1ccccc1-c1noc(C2CC2)c1COC1CCN(c2nc3ccc(-c4nn[nH]n4)cc3s2)CC1 [Example 7-3, 2-[4-({5-cyclopropyl-3-[2-(trifluoromethoxy)phenyl]-1,2-oxazol-4-yl}methoxy)piperidin-1-yl]-6-(2H-1,2,3,4-tetrazol-5-yl)-1,3-benzothiazole] |
| 272 nM | NC(=O)c1cc(F)c2nc(N3CCC(OCc4c(-c5ccccc5OC(F)(F)F)noc4C4CC4)CC3)sc2c1 [Example 7-4, 2-[4-({5-cyclopropyl-3-[2-(trifluoromethoxy)phenyl]-1,2-oxazol-4-yl}methoxy)piperidin-1-yl]-4-fluoro-1,3-benzothiazole-6-carboxamide] |
| 836 nM | N#Cc1ccc2nc(N3CCC(OCc4c(-c5c(F)cccc5Cl)noc4C4CC4)CC3)sc2c1 [Example 7-5, 2-(4-{[3-(2-chloro-6-fluorophenyl)-5-cyclopropyl-1,2-oxazol-4-yl]methoxy}piperidin-1-yl)-1,3-benzothiazole-6-carbonitrile] |
| 154 nM | Fc1cccc(Cl)c1-c1noc(C2CC2)c1COC1CCN(c2nc3ccc(-c4nn[nH]n4)cc3s2)CC1 [Example 7-6, 2-(4-{[3-(2-chloro-6-fluorophenyl)-5-cyclopropyl-1,2-oxazol-4-yl]methoxy}piperidin-1-yl)-6-(2H-1,2,3,4-tetrazol-5-yl)-1,3-benzothiazole] |
| 456 nM | COC(=O)CNC(=O)c1ccc2nc(N3CCC(OCc4c(-c5ccccc5OC(F)(F)F)noc4C4CC4)CC3)sc2c1 [Example 8-1A, Methyl 2-(2-(4-((5-cyclopropyl-3-(2-(trifluoromethoxy)phenyl)isoxazol-4-yl)methoxy)piperidin-1-yl)benzo[d]thiazole-6-carboxamido)acetate] |
| 20 nM | O=C(O)CNC(=O)c1ccc2nc(N3CCC(OCc4c(-c5ccccc5OC(F)(F)F)noc4C4CC4)CC3)sc2c1 [Example 8-1B, 2-(2-(4-((5-cyclopropyl-3-(2-(trifluoromethoxy)phenyl)isoxazol-4-yl)methoxy)piperidin-1-yl)benzo[d]thiazole-6-carboxamido)acetic acid] |
| 87 nM | O=C(NCCS(=O)(=O)O)c1ccc2nc(N3CCC(OCc4c(-c5ccccc5OC(F)(F)F)noc4C4CC4)CC3)sc2c1 [Example 9, 2-(2-(4-((5-cyclopropyl-3-(2-(trifluoromethoxy)phenyl)isoxazol-4-yl)methoxy)piperidin-1-yl)benzo[d]thiazole-6-carboxamido)ethanesulfonic acid] |
| 89 nM | O=C(O)c1ccc2nc(N3CCC(OCc4c(COc5c(Cl)cccc5Cl)noc4C4CC4)CC3)sc2c1 [Example 10-1, 2-(4-{[5-cyclopropyl-3-(2,6-dichlorophenoxymethyl)-1,2-oxazol-4-yl]methoxy}piperidin-1-yl)-1,3-benzothiazole-6-carboxylic acid] |
| 357 nM | O=C(O)c1ccc2nc(N3CCC(OCc4c(CC5CCCCC5)noc4C4CC4)CC3)sc2c1 [Example 10-2, 2-(4-{[3-(cyclohexylmethyl)-5-cyclopropyl-1,2-oxazol-4-yl]methoxy}piperidin-1-yl)-1,3-benzothiazole-6-carboxylic acid] |
